Laboratory results from ChEMBL document CHEMBL1201862, “PubChem BioAssay data set” (2004).
The source made the active and inactive calls.

Columns and labels:
[1] = target: Fructose-bisphosphate aldolase (Mycobacterium tuberculosis, UniProt P9WQA3); assay: Fluorescence-based biochemical high throughput dose response assay for inhibitors of the fructose-bisphosphate aldolase (FBA) of M. tuberculosis.; format: functional
[2] = target: T1, Small ubiquitin-related modifier 1 (Homo sapiens, UniProt P63165); assay: SUMO1 protein interaction blockers, potency – biochemical, fluorescence polarization, uHTS hits, dose response (AID 624382); format: functional; conditions: read-out: IC50_Mean
[3] = target: T1, Small ubiquitin-related modifier 1; assay: SUMO1 protein-protein binding blockers, potency – biochemical, FRET, dose response (AID 624383); format: functional; conditions: read-out: IC50_Mean
[4] = target: 1-phosphatidylinositol 4,5-bisphosphate phosphodiesterase gamma-1 (Homo sapiens, UniProt P19174); assay: Counterscreen for inhibitors of phospholipase C isozymes (PLC-B3): Fluorescence-based biochemical high throughput dose response assay to identify inhibitors of phospholipase C isozymes (PLC-gamma1).
[5] = target: 1-phosphatidylinositol 4,5-bisphosphate phosphodiesterase beta-3 (Homo sapiens, UniProt Q01970); assay: Fluorescence-based biochemical high throughput dose response assay to identify inhibitors of phospholipase C isozymes (PLC-B3).
[6] = T. cruzi growth inhibition in host cells, dose response, cell-based, plate reader, dry powder, set 2 (AID 652275); format: functional
[7] = reduced cellular PGC1a acetyl-lysine signal – cell-based, cherry-picked samples, dose response (AID 720514); format: functional;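 also: potency may reflect raised or lowered acetylation signal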
[8] = viability of uninfected HEp-2 cells – cell-based, HTS, cytotoxicity control for RSV inhibitor project, dose response (AID 2410); format: functional; conditions: human respiratory syncytial virus
[9] = luciferase reporter signal suppression in cells – H4 neuroglioma cells, luminescence, dose response (AID 1990); format: functional, cell-based
[10] = Luminescence Cell-Based Dose Response HTS to Identify Inhibitors of 5'UTR Stem-Loop Driven Prion Protein mRNA Translation in H4 Neuroglioblastoma Cells. [Related pubchem assays: 1827 (Project Summary), 1813 (Primary HTS)]; format: functional
[11] = alpha-synuclein stem-loop luciferase translation blockers – H4 neuroglioma cells, luminescence, confirmation (AID 1988); format: functional, cell-based
[12] = target: T2, Ubiquitin-conjugating enzyme E2 N (Homo sapiens, UniProt P61088); format: functional;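 also: Dose-response confirmation in a TR-FRET assay detecting UBC13-driven polyubiquitin chain formation, inhibition measured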
T2 sequence (P61088 whole entry): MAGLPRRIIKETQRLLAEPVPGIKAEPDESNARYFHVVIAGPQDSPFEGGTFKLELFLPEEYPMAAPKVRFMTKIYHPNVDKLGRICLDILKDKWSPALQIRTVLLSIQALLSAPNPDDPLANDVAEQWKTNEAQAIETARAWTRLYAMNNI

[13] = reduction of Shn3 3'UTR-driven luciferase in osteoblasts – cell-based, Clone20 osteoblasts, firefly luciferase, cherry-picked, dose response (AID 624132); format: functional;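 also: firefly luciferase luminescence from reporter carrying the Shn3 3'UTR in osteoblasts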
[14] = loss of viability in HepG2 cells – cell-based, CellTiter-Glo, cherry-picked, cytotoxicity control for Shn3 inhibitor project, dose response (AID 624134); format: functional
[15] = non-specific 3'UTR reporter inhibition in Clone20-Shn3RL – cell-based, Renilla luciferase, cherry-picked, counter-screen for Shn3 inhibitor project, dose response (AID 624133); format: functional
[16] = test system: A549; assay: viability loss in A549 cells – cell-based, plate reader, cherry-pick samples, cytotoxicity control, dose response (AID 687028); format: functional; conditions: Homo sapiens
[17] = test system: P388/ADR; assay: cells; format: functional; conditions: Mus musculus
[18] = test system: SN12K1; assay: cells; format: functional; conditions: Homo sapiens
[19] = test system: P388; assay: cells; format: functional; conditions: Mus musculus
[20] = general cell-killing toxicity readout – plate reader, dry powder samples, cytotoxicity control for PAX8 inhibitor project, dose response (AID 743021); format: functional, cell-based
[21] = rise of 2N DNA cells, HeLa – IC50, dose response (AID 1117349); format: functional, cell-based
[22] = CellTiter-Glo luminescence survival assay, SW480 colon tumor line, concentration-response curve, half-maximal inhibitory concentration (AID 1117338); format: functional
[23] = RKO cell viability reduction, dose response, CellTiter-Glo luminescence (AID 1117322); format: functional
[24] = cytotoxicity toward HCT116 cells – cell-based, CellTiter-Glo luminescence, IC50, dose response (AID 1117332); format: functional; conditions: HCT-116
[25] = SNU-C1 cell viability reduction, dose response, CellTiter-Glo luminescence (AID 1117323); format: functional, cell-based
[26] = cytotoxicity toward Colo320 cells – cell-based, CellTiter-Glo luminescence, IC50, dose response (AID 1117334); format: functional; conditions: COLO 320
[27] = rise of 4N DNA cells, HeLa – IC50, dose response (AID 1117351); format: functional, cell-based
[28] = cytotoxicity toward HT-29 cells – cell-based, CellTiter-Glo luminescence, IC50, dose response (AID 1117330); format: functional
[29] = Reduced DLD-1 viability, concentration-response, CellTiter-Glo luminescence (AID 1117352); format: functional
[30] = HCT116 cell viability decrease, GSK3B pretreatment – CellTiter-Glo, IC50, dose response (AID 1117339); format: functional; conditions: HCT-116
[31] = viability loss in HepG2 hepatoma cells – cell-based, ATP luminescence, cherry-pick, activator set 2, cytotoxicity control, dose response (AID 1053143); format: functional
[32] = target: T3, Oxysterols receptor LXR-beta (Homo sapiens, UniProt P55055); format: functional, cell-based;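 also: Cell-based luminescence dose-response assay of agonist activity at LXR, run as a confirmatory counterscreen to a daf-12 agonist screen; HEK293 cells with Gal4-LXR fusion and GAL4-driven luciferase reporter; agonist potency from rising luciferase signal of a Gal4-LXR reporter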
T3 sequence (P55055 whole entry): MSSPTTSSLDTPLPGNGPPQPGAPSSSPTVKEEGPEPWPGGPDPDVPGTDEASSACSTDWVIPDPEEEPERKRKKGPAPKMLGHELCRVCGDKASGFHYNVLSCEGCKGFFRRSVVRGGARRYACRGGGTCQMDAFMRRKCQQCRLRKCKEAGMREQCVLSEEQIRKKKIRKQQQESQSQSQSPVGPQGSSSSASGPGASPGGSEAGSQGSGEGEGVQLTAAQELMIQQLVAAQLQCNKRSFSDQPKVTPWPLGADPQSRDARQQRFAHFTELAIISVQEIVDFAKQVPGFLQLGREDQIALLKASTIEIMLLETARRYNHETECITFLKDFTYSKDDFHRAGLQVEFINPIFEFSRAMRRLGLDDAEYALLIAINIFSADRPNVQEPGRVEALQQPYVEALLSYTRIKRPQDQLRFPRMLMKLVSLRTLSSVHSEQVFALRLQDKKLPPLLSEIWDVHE

[33] = cells

Fructose-bisphosphate aldolase, sequence (P9WQA3 whole entry): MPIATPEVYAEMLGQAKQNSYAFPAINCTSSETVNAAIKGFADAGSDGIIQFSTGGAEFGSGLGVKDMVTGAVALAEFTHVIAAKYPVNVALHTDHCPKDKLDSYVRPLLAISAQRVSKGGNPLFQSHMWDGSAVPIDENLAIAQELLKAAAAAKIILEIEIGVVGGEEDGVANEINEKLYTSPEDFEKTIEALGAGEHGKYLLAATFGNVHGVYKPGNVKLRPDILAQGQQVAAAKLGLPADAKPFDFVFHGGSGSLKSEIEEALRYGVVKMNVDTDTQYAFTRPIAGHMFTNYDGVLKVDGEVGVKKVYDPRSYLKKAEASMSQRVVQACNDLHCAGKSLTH
T1 sequence (P63165 whole entry): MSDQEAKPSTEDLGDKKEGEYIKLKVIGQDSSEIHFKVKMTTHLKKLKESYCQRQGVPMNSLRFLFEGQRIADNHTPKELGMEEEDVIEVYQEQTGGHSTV
1-phosphatidylinositol 4,5-bisphosphate phosphodiesterase beta-3, sequence (Q01970 whole entry): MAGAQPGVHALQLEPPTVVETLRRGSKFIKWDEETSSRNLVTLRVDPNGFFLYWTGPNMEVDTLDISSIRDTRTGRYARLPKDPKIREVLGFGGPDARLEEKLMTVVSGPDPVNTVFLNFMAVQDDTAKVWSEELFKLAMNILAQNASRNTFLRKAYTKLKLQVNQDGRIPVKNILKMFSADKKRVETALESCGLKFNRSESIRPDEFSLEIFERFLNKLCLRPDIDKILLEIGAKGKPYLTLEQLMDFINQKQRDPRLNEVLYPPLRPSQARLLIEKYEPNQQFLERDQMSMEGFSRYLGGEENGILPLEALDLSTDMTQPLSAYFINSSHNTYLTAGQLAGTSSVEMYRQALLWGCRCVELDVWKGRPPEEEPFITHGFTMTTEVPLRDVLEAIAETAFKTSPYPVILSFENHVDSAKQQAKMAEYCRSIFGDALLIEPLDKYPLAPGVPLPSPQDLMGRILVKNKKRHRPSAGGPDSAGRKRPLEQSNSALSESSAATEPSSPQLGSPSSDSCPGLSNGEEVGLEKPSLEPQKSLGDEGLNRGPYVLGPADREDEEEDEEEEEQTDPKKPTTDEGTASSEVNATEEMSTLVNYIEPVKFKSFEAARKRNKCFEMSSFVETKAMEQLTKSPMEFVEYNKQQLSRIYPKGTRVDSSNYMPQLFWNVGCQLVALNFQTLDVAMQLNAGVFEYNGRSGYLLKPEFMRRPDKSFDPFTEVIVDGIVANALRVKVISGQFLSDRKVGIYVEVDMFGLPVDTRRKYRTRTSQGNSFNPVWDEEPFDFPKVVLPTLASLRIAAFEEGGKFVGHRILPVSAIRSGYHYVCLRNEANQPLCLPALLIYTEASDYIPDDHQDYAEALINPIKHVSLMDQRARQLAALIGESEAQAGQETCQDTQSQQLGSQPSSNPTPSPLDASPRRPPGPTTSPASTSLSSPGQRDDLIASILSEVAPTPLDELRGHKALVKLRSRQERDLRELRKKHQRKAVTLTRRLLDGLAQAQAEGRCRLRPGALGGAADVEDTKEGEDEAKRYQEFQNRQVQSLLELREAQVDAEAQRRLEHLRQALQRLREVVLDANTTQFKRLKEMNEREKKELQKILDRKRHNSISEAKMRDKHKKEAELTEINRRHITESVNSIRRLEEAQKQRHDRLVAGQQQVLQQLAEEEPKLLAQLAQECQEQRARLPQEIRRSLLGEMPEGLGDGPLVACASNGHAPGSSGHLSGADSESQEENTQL
1-phosphatidylinositol 4,5-bisphosphate phosphodiesterase gamma-1, sequence (P19174 whole entry): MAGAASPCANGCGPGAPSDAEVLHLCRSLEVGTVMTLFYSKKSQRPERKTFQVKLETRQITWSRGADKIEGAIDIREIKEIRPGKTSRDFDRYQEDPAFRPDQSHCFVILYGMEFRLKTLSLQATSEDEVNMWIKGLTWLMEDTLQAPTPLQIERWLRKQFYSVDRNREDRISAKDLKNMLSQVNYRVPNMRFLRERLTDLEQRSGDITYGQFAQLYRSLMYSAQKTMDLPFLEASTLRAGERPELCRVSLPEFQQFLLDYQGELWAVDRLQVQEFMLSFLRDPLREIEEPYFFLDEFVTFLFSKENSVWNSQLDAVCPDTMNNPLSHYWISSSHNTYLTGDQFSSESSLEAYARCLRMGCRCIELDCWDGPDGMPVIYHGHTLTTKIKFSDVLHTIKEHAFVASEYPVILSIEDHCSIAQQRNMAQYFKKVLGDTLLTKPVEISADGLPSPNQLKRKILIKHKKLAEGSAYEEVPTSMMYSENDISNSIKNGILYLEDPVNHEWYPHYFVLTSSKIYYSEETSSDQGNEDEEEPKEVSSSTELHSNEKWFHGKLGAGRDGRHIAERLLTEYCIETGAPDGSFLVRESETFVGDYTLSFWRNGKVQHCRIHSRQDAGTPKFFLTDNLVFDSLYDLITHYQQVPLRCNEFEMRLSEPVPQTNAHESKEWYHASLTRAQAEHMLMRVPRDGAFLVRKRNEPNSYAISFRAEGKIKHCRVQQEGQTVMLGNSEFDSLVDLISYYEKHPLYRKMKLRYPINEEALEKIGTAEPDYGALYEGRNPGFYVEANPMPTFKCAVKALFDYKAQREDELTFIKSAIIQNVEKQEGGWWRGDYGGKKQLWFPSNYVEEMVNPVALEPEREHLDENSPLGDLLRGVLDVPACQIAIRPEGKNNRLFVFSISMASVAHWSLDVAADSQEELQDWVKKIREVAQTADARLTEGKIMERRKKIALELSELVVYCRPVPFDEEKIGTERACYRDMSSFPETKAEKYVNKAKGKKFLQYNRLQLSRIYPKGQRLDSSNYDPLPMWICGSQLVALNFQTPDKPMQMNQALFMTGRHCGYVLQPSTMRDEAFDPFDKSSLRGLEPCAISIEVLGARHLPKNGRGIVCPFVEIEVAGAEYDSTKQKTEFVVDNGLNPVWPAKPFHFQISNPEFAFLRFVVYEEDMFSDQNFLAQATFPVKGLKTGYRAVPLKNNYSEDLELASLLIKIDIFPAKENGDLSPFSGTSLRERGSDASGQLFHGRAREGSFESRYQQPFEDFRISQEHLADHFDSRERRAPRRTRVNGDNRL

Cc1cc(-c2ccc(Cl)cc2)n2nc(N)nc2n1
IC50 [1]: 1.4 µM (active)

O=C1NC[C@@H](Cc2ccc(O)cc2)N(CCc2cc(C(F)(F)F)cc(C(F)(F)F)c2)C1=O
IC50 [2]: > 66.6 µM (inactive)
IC50 [3]: 9.75 µM (active)
IC50 [4]: 82.2 µM (inactive)
IC50 [5]: > 122 µM (inactive)

CC(=O)N1CCCCN2[C@@H](CO)[C@H](c3ccc(-c4cccc(C(=O)N(C)C)c4)cc3)[C@@H]2C1
AC50 [6]: 4.94 µM (active)

CC(C)CC#Cc1ccc2c(c1)O[C@H](CN(C)Cc1ccccc1)[C@@H](C)CN([C@H](C)CO)S2(=O)=O
AC50 [7]: 16.4 µM (active)

CCOc1c2ccc(C(=O)NC3CCCc4ccccc43)cc2nn1CC (centres undefined)
IC50 [1]: 1.64 µM (active)

CCc1ccc(O)c(CNCCNCc2cc(CC)ccc2O)c1
CC50 [8]: 9.08 µM (active)
EC50 [9]: 11 µM (active)
EC50 [10]: 12 µM (active)
EC50 [11]: 9.33 µM (active)
IC50 [12]: > 20 µM (inactive)
AC50 [13]: 1.38 µM (active)
AC50 [14]: 15.6 µM (active)
AC50 [15]: 8.22 µM (active)
AC50 [16]: 19.8 µM (active)

Nc1nc2[nH]cnc2c(=S)[nH]1 [THIOGUANINE]
GI50 [17]: 0.181 µM (active)
GI50 [18]: 0.281 µM (active)
GI50 [19]: 0.0762 µM (active)
AC50 [20]: 1.99 µM (active)
IC50 [21]: > 10 µM (inactive)
IC50 [22]: 0.402 µM (active)
IC50 [23]: 0.343 µM (active)
IC50 [24]: 0.139 µM (active)
IC50 [25]: 4.4 µM (active)
IC50 [26]: 0.373 µM (active)
IC50 [27]: > 10 µM (inactive)
IC50 [28]: 0.0493 µM (active)
IC50 [29]: 0.108 µM (active)
IC50 [30]: 0.163 µM (active)

Cc1ccc(-c2cnc3ccccc3n2)cc1C
AC50 [31]: 26 µM (active)
EC50 [32]: > 67.6 µM (inactive)
EC50 [33]: > 67.6 µM (inactive)
